Laboratory results reported in patent US20230263905A1, “SONOSENSITIVE LIPOSOME AND METHOD FOR PREPARING SAME” (IMGT CO, LTD., priority 2020, published 2023).

System: MDA-MB-231 cell line
Experiment: Cancer cell death effect, MTT assay
Assay type: cell-based
Settings: not irradiated with ultrasound; 2-10 μg/mL doxorubicin, 3 hours treatment, 72 hours culture; FIG. 9
Experimental: To compare and analyze a cell death effect of the sonosensitive liposome according to the presence/absence of ultrasound irradiation, cancer cell death effects were compared and analyzed according to the presence/absence of ultrasound irradiation using the sonosensitive liposomes of Example 1. An MDA-MB-231 cell line which is a triple-negative breast cancer cell line was used as cancer cells. The MDA-MB-231 cell line was seeded in each well of a 96-well plate at a concentration of 10,000 cells/mL, and then cultured overnight. The cell culture was cultured in a culture broth containing 10% fetal bovine serum (FBS) and 1% antibiotic in Dulbecco's Modified Eagle Medium (DMEM). The culture broth was removed from the wells in which the cells were cultured overnight, and replaced with FBS-free DMEM, and then cultured for an hour. Then, the sonosensitive liposome were added thereto, and cultured for 3 hours. To compare and analyze the cancer cell death according to the ultrasound irradiation, each of the designated wells was treated with a sonosensitive liposome (Sono liposome (US+)) irradiated with ultrasound and a sonosensitive liposome (Sono liposome (US−)) not irradiated with ultrasound. […] The cancer cell death effects were compared and analyzed by adding 200 μL of DMSO to formed formazan in each well and measuring the absorbance at a wavelength of 540 nm using an ELISA reader.

## COc1cccc2c1C(=O)c1c(O)c3c(c(O)c1C2=O)C[C@@](O)(C(=O)CO)C[C@@H]3O[C@H]1C[C@H](N)[C@H](O)[C@H](C)O1 [doxorubicin]
  cell death effect on cancer cells: had a cancer cell death effect
